The source of these data is US20240270809A1, “ORAL GLP RECEPTOR AGONISTS” (priority 2020, published 2024).

By Emax is commonly meant the size of the effect at its maximum, as opposed to the concentration needed.

For one test, the target named is T1, human GLP2 receptor (Homo sapiens, UniProt O95838).
T1 construct: expressed in transfected cells; host or cells: HEK cells, BacMam virus transduction
T1 sequence (O95838 1-553): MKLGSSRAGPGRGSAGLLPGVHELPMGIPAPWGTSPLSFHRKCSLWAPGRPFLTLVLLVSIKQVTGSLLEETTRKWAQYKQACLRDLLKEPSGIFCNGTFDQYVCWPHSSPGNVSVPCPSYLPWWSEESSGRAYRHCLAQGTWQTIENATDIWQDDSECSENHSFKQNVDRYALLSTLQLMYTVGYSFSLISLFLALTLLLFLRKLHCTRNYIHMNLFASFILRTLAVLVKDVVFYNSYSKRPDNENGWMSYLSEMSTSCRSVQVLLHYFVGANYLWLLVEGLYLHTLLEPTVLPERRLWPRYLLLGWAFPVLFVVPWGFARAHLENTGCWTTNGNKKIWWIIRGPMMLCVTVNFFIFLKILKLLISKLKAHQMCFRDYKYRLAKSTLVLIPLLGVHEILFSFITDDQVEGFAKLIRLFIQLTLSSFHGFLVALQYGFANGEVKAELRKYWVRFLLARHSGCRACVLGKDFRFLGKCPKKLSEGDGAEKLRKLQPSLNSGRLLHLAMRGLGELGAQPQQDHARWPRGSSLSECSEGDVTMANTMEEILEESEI
Description: cAMP accumulation assay, functional agonism of human GLP2 receptor. To be noted: HEK cells infected with human GLP2 receptor BacMam virus, HTRF cAMP; for Emax: HEK293, read-out: Human GLP-2R agonist cAMP Emax; for EC50: read-out: Human GLP-2R agonist cAMP pEC50 (converted). The test is classed as cell-based. The gist of the method:
(§1)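 Agonist-driven cAMP production was quantified by homogeneous time-resolved fluorescence. Receptor expression in HEK cells came from a 24-hour BacMam infection, and cells were frozen ahead of the assay. Incubation lasted 45 min at 37° C in HBSS supplemented with 0.5 mM IBMX.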

The next test addresses T2, human GLP1 receptor (Homo sapiens, UniProt P43220).
T2 construct: expressed in transfected cells; host or cells: HEK cells, BacMam virus transduction
In words: cAMP accumulation assay, functional agonism of human GLP1 receptor. To be noted: HEK cells infected with human GLP1 receptor BacMam virus, HTRF cAMP; for Emax: HEK293, read-out: Human GLP-1R agonist cAMP Emax; for EC50: read-out: Human GLP-1R agonist cAMP pEC50 (converted). It counts as cell-based. In short, it runs like this: as §1
For orientation: Changes in cAMP serve as a functional read-out for many G protein-coupled receptors.

Positions of bridges follow the written chain, without caps; N, C: chain ends. Non-standard residues stand in square brackets, D forms with d. Residues, ends and D or L forms follow the SMILES beside them. *: point of attachment. Malonyl(2,2-Me2,histaminyl) = CC(C)(C(=O)NCCc1cnc[nH]1)C(=O)*; Ala(1H-tetrazol-5-yl) = N[C@@H](Cc1nnn[nH]1)C(=O)O; αMeL = CC(C)C[C@](C)(N)C(=O)O; Nle = CCCC[C@H](N)C(=O)O; Aib = CC(C)(N)C(=O)O

T2 sequence (P43220 24-463): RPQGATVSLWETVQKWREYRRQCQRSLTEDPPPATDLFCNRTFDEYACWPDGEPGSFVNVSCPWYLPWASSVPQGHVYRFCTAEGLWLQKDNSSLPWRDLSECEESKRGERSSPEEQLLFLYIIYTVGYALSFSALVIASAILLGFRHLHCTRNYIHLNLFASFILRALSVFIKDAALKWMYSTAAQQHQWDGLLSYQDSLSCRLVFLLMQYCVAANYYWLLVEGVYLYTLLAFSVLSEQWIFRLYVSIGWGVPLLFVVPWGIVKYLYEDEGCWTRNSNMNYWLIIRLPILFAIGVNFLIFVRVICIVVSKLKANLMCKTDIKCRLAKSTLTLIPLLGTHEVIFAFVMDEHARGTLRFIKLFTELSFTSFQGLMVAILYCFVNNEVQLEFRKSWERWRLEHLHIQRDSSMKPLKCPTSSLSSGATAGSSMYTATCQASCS

As for `CCCC[C@H](NC(=O)[C@H](CCC(=O)O)NC(=O)[C@H](CC(=O)O)NC(=O)[C@H](CO)NC(=O)[C@H](Cc1ccccc1)NC(=O)[C@H](CO)NC(=O)CNC(=O)[C@H](CC(=O)O)NC(=O)C(C)(C)NC(=O)[C@@H](N)Cc1c[nH]cn1)C(=O)N[C@H](Cc1ccccc1)C(=O)N[C@H](C(=O)N[C@H](C(=O)N[C@@H](CC(C)C)C(=O)N[C@@H](CC(=O)O)C(=O)N[C@@H](CC(C)C)C(=O)N[C@@H](CCCCN)C(=O)N[C@@H](C)C(=O)N[C@@H](C)C(=O)N[C@@H](CCCCN)C(=O)N[C@@H](CC(=O)O)C(=O)N[C@@H](Cc1ccccc1)C(=O)N[C@H](C(=O)N[C@@H](CC(N)=O)C(=O)N[C@@H](Cc1c[nH]c2ccccc12)C(=O)N[C@@H](CC(C)C)C(=O)N[C@H](C(=O)N[C@@H](CCC(N)=O)C(=O)N[C@H](C(=O)N[C@H]1CCCCNC(=O)CC[C@@H](C(N)=O)NC(=O)[C@H]([C@@H](C)O)NC(=O)[C@H]([C@@H](C)CC)NC1=O)[C@@H](C)O)[C@@H](C)CC)[C@@H](C)CC)[C@@H](C)CC)[C@@H](C)O` [Example 101] (H-H[Aib]DGSFSDE[Nle][dF]TILDLKAAKDFINWLIQTKITE-NH2; lactam 30-33 (inferred); C-terminus assumed), the figures for the maximal response (Emax) on human GLP2 receptor and on human GLP1 receptor were 101% and 96.7%, respectively. The results for the EC50 at human GLP2 receptor and at human GLP1 receptor were 0.0316 nM and 12.6 nM, respectively.

As to `CCCC[C@@H]1NC(=O)[C@H](CCC(=O)O)NC(=O)[C@H](CC(=O)O)NC(=O)[C@@H](NC(=O)[C@H](Cc2ccccc2)NC(=O)[C@H](CO)NC(=O)CNC(=O)[C@H](Cc2nn[nH]n2)NC(=O)C(C)(C)C(=O)NCCc2c[nH]cn2)CCC(=O)NCCCC[C@@H](C(=O)N[C@H]2CCC(=O)NCCCC[C@@H](C(=O)N[C@H]3CCCCNC(=O)C[C@@H](C(=O)N[C@@H](Cc4ccccc4)C(=O)N[C@H](C(=O)N[C@H]4CCC(=O)NCCCC[C@@H](C(=O)N[C@H]5CCCCNC(=O)CC[C@@H](C(N)=O)NC(=O)[C@H]([C@@H](C)O)NC(=O)[C@H]([C@@H](C)CC)NC(=O)[C@H](CCCCN)NC5=O)NC(=O)[C@H]([C@@H](C)CC)NC(=O)[C@H](CC(C)C)NC(=O)[C@H](Cc5c[nH]c6ccccc56)NC4=O)[C@@H](C)CC)NC(=O)[C@H](CCCCN)NC(=O)[C@H](C)NC(=O)[C@H](C)NC3=O)NC(=O)[C@H](CC(=O)O)NC(=O)[C@H](CC(C)C)NC(=O)[C@H]([C@@H](C)CC)NC2=O)NC1=O` [Example 81] ({Malonyl(2,2-Me2,histaminyl)}-[Ala(1H-tetrazol-5-yl)]GSFEDE[Nle]KEILDKKAAKDFIEWLIKKKITE-NH2; lactam 5-9, 10-14, 15-19, 22-26, 27-31; C-terminus assumed), on human GLP2 receptor, the maximum response (Emax) came out at 91.6% and the EC50 is 0.631 nM. For the same molecule, on human GLP1 receptor, the Emax is 56.1% and the EC50 was 3.16 nM.

Regarding `CCCC[C@@H]1NC(=O)[C@H](CCC(=O)O)NC(=O)[C@@H](NC(=O)[C@H](CO)NC(=O)[C@H](Cc2ccccc2)NC(=O)[C@H](CO)NC(=O)CNC(=O)[C@H](Cc2nn[nH]n2)NC(=O)C(C)(C)C(=O)NCCc2c[nH]cn2)CCCCNC(=O)C[C@@H](C(=O)N[C@H](C(=O)N[C@@H](CC(C)C)C(=O)N[C@@H](CC(=O)O)C(=O)N[C@@H](CC(C)C)C(=O)N[C@@H](CCCCN)C(=O)N[C@@H](C)C(=O)N[C@@H](C)C(=O)N[C@@H](CCCCN)C(=O)N[C@@H](CC(=O)O)C(=O)N[C@@H](Cc2ccccc2)C(=O)N[C@H](C(=O)N[C@@H](CC(N)=O)C(=O)N[C@@H](Cc2c[nH]c3ccccc23)C(=O)N[C@@H](CC(C)C)C(=O)N[C@H](C(=O)N[C@@H](CCC(N)=O)C(=O)N[C@H](C(=O)N[C@@H](CCCCN)C(=O)N[C@H](C(=O)N[C@H](C(=O)N[C@@H](Cc2ccccc2)C(N)=O)[C@@H](C)O)[C@@H](C)CC)[C@@H](C)O)[C@@H](C)CC)[C@@H](C)CC)[C@@H](C)CC)NC(=O)[C@@H](Cc2ccccc2)NC1=O` [Example 82] ({Malonyl(2,2-Me2,histaminyl)}-[Ala(1H-tetrazol-5-yl)]GSFSKE[Nle][dF]DILDLKAAKDFINWLIQTKITF-NH2; lactam 6-10 (inferred); C-terminus assumed), the maximal effect (Emax) stood at 104% on human GLP2 receptor and 94.5% at human GLP1 receptor. For the same molecule, the values for the EC50 on human GLP2 receptor and at human GLP1 receptor were 0.0794 nM and 12.6 nM, respectively.

Take `CCCC[C@H](NC(=O)[C@H](CCC(=O)O)NC(=O)[C@@H]1CC(=O)NCCCC[C@H](NC(=O)[C@H](Cc2nn[nH]n2)NC(=O)C(C)(C)C(=O)NCCc2c[nH]cn2)C(=O)N[C@@H](CO)C(=O)N[C@@H](Cc2ccccc2)C(=O)N[C@@H](CO)C(=O)N1)C(=O)N[C@H](Cc1ccccc1)C(=O)N[C@H](C(=O)N[C@@](C)(CC(C)C)C(=O)N[C@@H](CC(C)C)C(=O)N[C@@H](CC(=O)O)C(=O)N[C@H]1CCC(=O)NCCCC[C@@H](C(=O)N[C@@H](CC(=O)O)C(=O)N[C@@H](Cc2ccccc2)C(=O)N[C@H](C(=O)N[C@H]2CCC(=O)NCCCC[C@@H](C(=O)N[C@H](C(=O)N[C@H]3CCC(=O)NCCCC[C@@H](C(N)=O)NC(=O)[C@H]([C@@H](C)O)NC(=O)[C@H]([C@@H](C)CC)NC3=O)[C@@H](C)O)NC(=O)[C@H]([C@@H](C)CC)NC(=O)[C@H](CC(C)C)NC(=O)[C@H](Cc3c[nH]c4ccccc34)NC2=O)[C@@H](C)CC)NC(=O)[C@H](C)NC(=O)[C@H](C)NC(=O)[C@H](CCCCN)NC1=O)[C@@H](C)O` [Example 44] ({Malonyl(2,2-Me2,histaminyl)}-[Ala(1H-tetrazol-5-yl)]KSFSDE[Nle][dF]T[αMeL]LDEKAAKDFIEWLIKTEITK-NH2; lactam 2-6, 14-18, 22-26, 28-31; C-terminus assumed): on human GLP2 receptor, the maximal effect (Emax) came to 104% and the EC50 was 0.631 nM. At human GLP1 receptor, the maximal response (Emax) was 96.1% and the EC50 was 0.2 nM.

`CCCC[C@@H]1NC(=O)[C@H](CCC(=O)O)NC(=O)[C@@H](NC(=O)[C@H](CO)NC(=O)[C@H](Cc2ccccc2)NC(=O)[C@H](CO)NC(=O)[C@@H](C)NC(=O)[C@H](Cc2nn[nH]n2)NC(=O)C(C)(C)C(=O)NCCc2c[nH]cn2)CCCCNC(=O)C[C@@H](C(=O)N[C@@](C)(CC(C)C)C(=O)N[C@@H](CC(C)C)C(=O)N[C@@H](CC(=O)O)C(=O)N[C@H]2CCC(=O)NCCCC[C@@H](C(=O)N[C@@H](CC(=O)O)C(=O)N[C@@H](Cc3ccccc3)C(=O)N[C@H](C(=O)N[C@@H](CC(N)=O)C(=O)N[C@@H](Cc3c[nH]c4ccccc34)C(=O)N[C@@H](CC(C)C)C(=O)N[C@H](C(=O)N[C@@H](CCC(N)=O)C(=O)N[C@H]3CCC(=O)NCCCC[C@@H](C(N)=O)NC(=O)[C@H]([C@@H](C)O)NC(=O)[C@H]([C@@H](C)CC)NC(=O)[C@H](CCCCN)NC3=O)[C@@H](C)CC)[C@@H](C)CC)NC(=O)[C@H](C)NC(=O)[C@H](C)NC(=O)[C@H](CCCCN)NC2=O)NC(=O)[C@@H](Cc2ccccc2)NC1=O` [Example 24] ({Malonyl(2,2-Me2,histaminyl)}-[Ala(1H-tetrazol-5-yl)][dA]SFSKE[Nle][dF]D[αMeL]LDEKAAKDFINWLIQEKITK-NH2; lactam 6-10, 14-18, 27-31 (inferred); C-terminus assumed): at human GLP2 receptor, the maximal effect (Emax) was 103% and the EC50 is 0.00794 nM. In addition, on human GLP1 receptor, the maximal response (Emax) stood at 96.8% and the EC50 was 0.2 nM.

Take `CCCC[C@H](NC(=O)[C@H](CCC(=O)O)NC(=O)[C@@H]1CC(=O)NCCCC[C@H](NC(=O)[C@H](CC(=O)O)NC(=O)C(C)(C)C(=O)NCCc2c[nH]cn2)C(=O)N[C@@H](CO)C(=O)N[C@@H](Cc2ccccc2)C(=O)N[C@@H](CO)C(=O)N1)C(=O)N[C@H](Cc1ccccc1)C(=O)N[C@H](C(=O)N[C@@](C)(CC(C)C)C(=O)N[C@@H](CC(C)C)C(=O)N[C@@H](CC(=O)O)C(=O)N[C@H]1CCC(=O)NCCCC[C@@H](C(=O)N[C@@H](CC(=O)O)C(=O)N[C@@H](Cc2ccccc2)C(=O)N[C@H](C(=O)N[C@H]2CCC(=O)NCCCC[C@@H](C(=O)N[C@H]3CCC(=O)NCCCC[C@@H](C(N)=O)NC(=O)[C@H]([C@@H](C)O)NC(=O)[C@H]([C@@H](C)CC)NC(=O)[C@H](CCCCN)NC3=O)NC(=O)[C@H]([C@@H](C)CC)NC(=O)[C@H](CC(C)C)NC(=O)[C@H](Cc3c[nH]c4ccccc34)NC2=O)[C@@H](C)CC)NC(=O)[C@H](C)NC(=O)[C@H](C)NC(=O)[C@H](CCCCN)NC1=O)[C@@H](C)O` [Example 68] ({Malonyl(2,2-Me2,histaminyl)}-DKSFSDE[Nle][dF]T[αMeL]LDEKAAKDFIEWLIKEKITK-NH2; lactam 2-6, 14-18, 22-26, 27-31 (inferred); C-terminus assumed): the maximal response (Emax) at human GLP2 receptor worked out at 103%; on human GLP1 receptor it was 94%. Besides, the EC50 on human GLP2 receptor is 0.0794 nM; on human GLP1 receptor, 0.316 nM.
